Literature values as cited in patent US20230404915A1, “RAPIDLY […] COMPOSTIONS AND METHODS (Nicotine)” (ORCOSA INC., priority 2020, published 2023).

Molecular target: nicotinic acetylcholine receptors (nAChRs) (Homo sapiens, UniProt P17787+P43681)
Settings: peak levels of nicotine after smoking a cigarette; brain α4β2 nAChRs

nicotinic acetylcholine receptors (nAChRs), sequence (P43681 29-627 limits assumed): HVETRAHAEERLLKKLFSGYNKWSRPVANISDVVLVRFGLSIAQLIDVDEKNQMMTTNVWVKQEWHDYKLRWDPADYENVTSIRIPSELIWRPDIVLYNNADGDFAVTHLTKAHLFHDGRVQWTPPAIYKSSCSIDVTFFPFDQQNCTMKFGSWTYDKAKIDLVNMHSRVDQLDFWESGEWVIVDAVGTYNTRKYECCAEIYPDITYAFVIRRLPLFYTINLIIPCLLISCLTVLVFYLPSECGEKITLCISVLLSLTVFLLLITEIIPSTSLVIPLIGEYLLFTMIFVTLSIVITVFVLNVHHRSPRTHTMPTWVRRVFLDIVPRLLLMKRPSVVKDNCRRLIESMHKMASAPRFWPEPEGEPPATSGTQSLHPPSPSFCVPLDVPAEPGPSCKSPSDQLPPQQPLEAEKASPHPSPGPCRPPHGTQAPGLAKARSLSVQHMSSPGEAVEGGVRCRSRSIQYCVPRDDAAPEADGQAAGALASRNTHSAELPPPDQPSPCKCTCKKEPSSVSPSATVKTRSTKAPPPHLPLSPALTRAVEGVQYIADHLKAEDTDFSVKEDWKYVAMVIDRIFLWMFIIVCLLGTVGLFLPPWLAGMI
nicotinic acetylcholine receptors (nAChRs), sequence (P17787 26-502): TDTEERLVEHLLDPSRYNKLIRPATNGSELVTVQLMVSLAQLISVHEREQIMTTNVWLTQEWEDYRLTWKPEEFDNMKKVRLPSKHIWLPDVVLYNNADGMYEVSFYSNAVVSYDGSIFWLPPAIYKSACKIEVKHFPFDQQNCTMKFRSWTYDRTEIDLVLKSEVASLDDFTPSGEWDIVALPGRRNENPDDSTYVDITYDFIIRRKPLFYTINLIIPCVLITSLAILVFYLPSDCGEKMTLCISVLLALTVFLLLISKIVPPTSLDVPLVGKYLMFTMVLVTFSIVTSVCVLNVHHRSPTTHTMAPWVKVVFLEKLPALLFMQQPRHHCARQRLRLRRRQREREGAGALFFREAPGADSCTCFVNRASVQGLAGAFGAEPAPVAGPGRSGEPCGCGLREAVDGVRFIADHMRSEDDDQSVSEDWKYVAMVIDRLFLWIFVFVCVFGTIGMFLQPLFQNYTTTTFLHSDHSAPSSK

## CN1CCCC1c1cccnc1 (stereo not shown) [nicotine]
  binding to the nicotinic acetylcholine receptors (nAChRs), saturation: around 90%
